In paper PMC12163822, “Synthesis and Pharmacological Characterization of a Novel Cannabinoid Receptor 1 Antagonist” (ACS Omega, 2025):

Experiments:
CB1 receptor [1] = target: CB1 receptor (Rattus norvegicus, UniProt P20272); test: Functional [35S]GTPγS autoradiography in rat brain slices; assay type: biochemical, Sprague-Dawley rat; set-up: fresh frozen sections from brain samples from wild-type; from tissue; host or cells: Sprague-Dawley rat brain sections; conditions: for [35S]GTPγS binding, Stimulation (% over basal), CP55,940 + UVI3502 / [35S]GTPγS binding, Stimulation (% over basal): rat; for [35S]GTPγS binding, Stimulation (% over basal), CP55,940 + UVI3502: CP55,940 and UVI3502 both at 10 µM; for [35S]GTPγS binding, Stimulation (% over basal): compound alone 10 µM
Experimental: (§1) All brain sections were air-dried for 30 min and then immersed in Coplin jars for preincubation (4 times, 15 min each time) in an HEPES-based buffer (50 mM HEPES, 100 mM NaCl, 3 mM MgCl2, 0.2 mM EGTA, 0.5% BSA; pH 7.4) at 30 °C. The objective of this preincubation was the removal of endogenous ligands. […] Basal [^35S]-GTPγS binding was defined in the absence of the agonists in two consecutive slices. To define nonspecific binding, 10 μM of unlabeled GTPγS was added to the incubation in another section. Following incubation, slices were twice washed in an ice-cold 50 mM HEPES buffer (pH 7.4), dried, and exposed for 48 h to β-radiation sensitive film with a set of [^14C] standards calibrated for [^35S]. Calibrated films were scanned and quantified using Fiji software (Fiji, Bethesda, […], USA). The signal corresponding to nonspecific binding was previously subtracted from the basal and agonist-stimulated binding. Then, the data was expressed as the percentage of stimulation over basal following the formula: ([^35S]-GTPγS agonist-stimulated binding) × 100/([^35S]-GTPγS basal binding)-100.

human CB1 receptor = target: T1, human CB1 receptor (Homo sapiens, UniProt P21554); test: [3H]CP55,940 inhibition curves in membranes from CHO cells overexpressing human CB1; assay type: binding
T1 construct: purchased Sigma-Aldrich; host or cells: CHO cells
Experimental: (§2) Membrane homogenates from CHO cells overexpressing human CB1 and CB2 receptors, as well as matched wild-type cells, were used to test newly synthesized compounds and were acquired from Sigma-Aldrich (St Louis, MO, USA).
(§3) To stop the reaction, an ice-cold wash buffer (50 mM Tris–HCl and 0.5% BSA, pH 7.4) was added. Then, the membranes were retained by vacuum filtration to a Whatman GF/C glass microfiber filter (Sigma-Aldrich, St. Louis, MO, USA) and the free radioligand was discarded. Filters with the bound radioligand were transferred to vials containing 5 mL of Ultima Gold cocktail (Revvity, Boston, MA, USA) and measured with a Packard Tri-Carb 2200CA liquid scintillation counter (Revvity, Boston, MA, USA).
(§4) A concentration of 0.02 mg/mL of commercial WT (as control) and CB1 and CB2 overexpressing CHO cells were used, and the same protocol described above was followed. Rat spleen homogenates were also used at a concentration of 0.1 mg/mL as a further characterization of binding to the CB2 receptor, given the high expression of this receptor in this tissue and the practical lack of CB1 in it.

human CB2 receptor = target: T2, human CB2 receptor (Homo sapiens, UniProt P34972); test: [3H]CP55,940 inhibition curves in membranes from CHO cells overexpressing human CB2; assay type: binding
T2 construct: purchased Sigma-Aldrich; host or cells: CHO cells
Experimental: as §2, §3, §4

CB1 receptor [2] = target: T3, CB1 receptor (Mus musculus, UniProt P47746); test: Functional [35S]GTPγS autoradiography in mouse brain slices; assay type: biochemical, Swiss mice; conditions: for [35S]GTPγS binding, Stimulation (% over basal), CP55,940 + UVI3502 / [35S]GTPγS binding, Stimulation (% over basal): mouse; for [35S]GTPγS binding, Stimulation (% over basal), CP55,940 + UVI3502: CP55,940 and UVI3502 both at 10 µM; for [35S]GTPγS binding, Stimulation (% over basal): compound alone 10 µM
T3 construct: fresh frozen sections from brain samples from wild-type; from tissue; host or cells: Swiss mouse brain sections
Experimental: as §1

[3] = nucleus basalis magnocellularis

T3 sequence (P47746 whole entry): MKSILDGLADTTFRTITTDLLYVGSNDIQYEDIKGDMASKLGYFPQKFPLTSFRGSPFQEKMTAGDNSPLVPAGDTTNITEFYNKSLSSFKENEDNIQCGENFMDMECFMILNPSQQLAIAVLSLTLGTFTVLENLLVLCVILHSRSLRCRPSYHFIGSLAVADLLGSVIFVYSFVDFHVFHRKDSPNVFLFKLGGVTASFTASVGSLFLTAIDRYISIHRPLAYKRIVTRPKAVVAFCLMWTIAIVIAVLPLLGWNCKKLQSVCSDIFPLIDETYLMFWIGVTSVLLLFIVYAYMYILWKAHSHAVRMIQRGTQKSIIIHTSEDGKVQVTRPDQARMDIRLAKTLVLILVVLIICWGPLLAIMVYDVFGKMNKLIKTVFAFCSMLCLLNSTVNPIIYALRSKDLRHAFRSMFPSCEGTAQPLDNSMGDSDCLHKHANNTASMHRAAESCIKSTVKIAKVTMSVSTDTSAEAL
CB1 receptor (Rattus norvegicus, UniProt P20272), sequence (P20272 whole entry): as the sequence (P47746 whole entry) above, with D95E counted along it
T1 sequence (P21554 whole entry): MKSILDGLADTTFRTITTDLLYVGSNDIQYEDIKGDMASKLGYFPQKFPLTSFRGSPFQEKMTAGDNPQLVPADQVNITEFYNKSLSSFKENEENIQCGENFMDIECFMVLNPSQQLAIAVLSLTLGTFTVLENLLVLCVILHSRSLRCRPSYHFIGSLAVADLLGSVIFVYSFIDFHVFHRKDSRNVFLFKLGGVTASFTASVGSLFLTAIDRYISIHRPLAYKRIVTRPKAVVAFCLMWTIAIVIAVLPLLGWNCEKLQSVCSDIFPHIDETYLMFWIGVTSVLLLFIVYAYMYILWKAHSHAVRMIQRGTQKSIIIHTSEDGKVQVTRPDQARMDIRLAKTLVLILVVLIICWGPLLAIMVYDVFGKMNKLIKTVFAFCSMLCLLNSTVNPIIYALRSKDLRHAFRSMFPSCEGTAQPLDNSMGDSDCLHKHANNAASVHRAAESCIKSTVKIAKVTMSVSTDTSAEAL
T2 sequence (P34972 whole entry): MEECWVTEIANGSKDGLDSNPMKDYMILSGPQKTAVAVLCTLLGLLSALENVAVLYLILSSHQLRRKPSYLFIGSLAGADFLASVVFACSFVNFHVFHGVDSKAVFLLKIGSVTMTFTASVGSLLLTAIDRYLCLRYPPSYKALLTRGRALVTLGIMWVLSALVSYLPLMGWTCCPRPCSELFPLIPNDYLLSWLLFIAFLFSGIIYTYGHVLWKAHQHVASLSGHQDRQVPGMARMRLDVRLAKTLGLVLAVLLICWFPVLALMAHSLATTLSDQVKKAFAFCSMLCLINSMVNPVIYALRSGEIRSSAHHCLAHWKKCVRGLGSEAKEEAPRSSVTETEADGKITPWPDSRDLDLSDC

With `CCOC(=O)/C=C1\C(=O)Nc2ccc(C)cc2-c2c1c1cc(OC)ccc1n2C(=O)OCC` [UVI3502] the “activity on CP55,940-evoked [35S]GTPγS stimulation” value (CB1 receptor [1]; rat brain slices, 10 µM, result in words) was “acts as an antagonist”, the “[35S]GTPγS binding, Stimulation (% over basal), CP55,940 + UVI3502” value (CB1 receptor [1]; amygdala) was -47 ± 30 % over basal and the “[35S]GTPγS binding, Stimulation (% over basal)” value (CB1 receptor [1]; amygdala) was -35 ± 19 % over basal. The “[35S]GTPγS binding, Stimulation (% over basal), CP55,940 + UVI3502” value (CB1 receptor [1]; cerebellum (gray matter)) was -46 ± 31 % over basal, the “[35S]GTPγS binding, Stimulation (% over basal)” value (CB1 receptor [1]; cerebellum (gray matter)) was -16 ± 51 % over basal and the “[35S]GTPγS binding, Stimulation (% over basal), CP55,940 + UVI3502” value (CB1 receptor [1]; cortex) was -60 ± 10 % over basal. For the same compound, the “[35S]GTPγS binding, Stimulation (% over basal)” value (CB1 receptor [1]; cortex) was -45 ± 24 % over basal, the “[35S]GTPγS binding, Stimulation (% over basal), CP55,940 + UVI3502” value (CB1 receptor [1]; globus pallidus) was 89 ± 42 % over basal and the “[35S]GTPγS binding, Stimulation (% over basal)” value (CB1 receptor [1]; globus pallidus) was -3 ± 46 % over basal. The “[35S]GTPγS binding, Stimulation (% over basal), CP55,940 + UVI3502” value (CB1 receptor [1]; hippocampus dorsal) was -62 ± 6 % over basal, the “[35S]GTPγS binding, Stimulation (% over basal)” value (CB1 receptor [1]; hippocampus dorsal) was -40 ± 26 % over basal and the “[35S]GTPγS binding, Stimulation (% over basal), CP55,940 + UVI3502” value (CB1 receptor [1]; [3]) was -40 ± 11 % over basal. The “[35S]GTPγS binding, Stimulation (% over basal)” value (CB1 receptor [1]; [3]) was -35 ± 30 % over basal, the “[35S]GTPγS binding, Stimulation (% over basal), CP55,940 + UVI3502” value (CB1 receptor [1]; striatum) was -54 ± 23 % over basal and the “[35S]GTPγS binding, Stimulation (% over basal)” value (CB1 receptor [1]; striatum) was -34 ± 25 % over basal. The “[35S]GTPγS binding, Stimulation (% over basal), CP55,940 + UVI3502” value (CB1 receptor [1]; substantia nigra) was 14 ± 80 % over basal, the “[35S]GTPγS binding, Stimulation (% over basal)” value (CB1 receptor [1]; substantia nigra) was -41 ± 24 % over basal and the IC50 (human CB1 receptor) was 4.64 ± 1.6 µM. For the same compound, the “total inhibition of [3H]CP55,940 binding” value (human CB1 receptor; CB1 overexpressing CHO membranes) was “approximately 38%”, the IC50 (human CB2 receptor) was 16.2 ± 0.131 µM and the “maximum inhibition of [3H]CP55,940 binding” value (human CB2 receptor; CB2 overexpressing CHO membranes) was “approximately 83%”. For the same compound, the “activity on CP55,940-evoked [35S]GTPγS stimulation” value (CB1 receptor [2]; mouse brain slices, 10 µM, result in words) was “acts as an antagonist”, the “[35S]GTPγS binding, Stimulation (% over basal), CP55,940 + UVI3502” value (CB1 receptor [2]; amygdala) was 0 ± 78 % over basal and the “[35S]GTPγS binding, Stimulation (% over basal)” value (CB1 receptor [2]; amygdala) was -16 ± 51 % over basal. The “[35S]GTPγS binding, Stimulation (% over basal), CP55,940 + UVI3502” value (CB1 receptor [2]; cerebellum (gray matter)) was 6 ± 23 % over basal, the “[35S]GTPγS binding, Stimulation (% over basal)” value (CB1 receptor [2]; cerebellum (gray matter)) was -43 ± 9 % over basal and the “[35S]GTPγS binding, Stimulation (% over basal), CP55,940 + UVI3502” value (CB1 receptor [2]; cortex) was -51 ± 11 % over basal. The “[35S]GTPγS binding, Stimulation (% over basal)” value (CB1 receptor [2]; cortex) was -55 ± 9 % over basal, the “[35S]GTPγS binding, Stimulation (% over basal), CP55,940 + UVI3502” value (CB1 receptor [2]; globus pallidus) was 91 ± 104 % over basal and the “[35S]GTPγS binding, Stimulation (% over basal)” value (CB1 receptor [2]; globus pallidus) was -46 ± 29 % over basal. The “[35S]GTPγS binding, Stimulation (% over basal), CP55,940 + UVI3502” value (CB1 receptor [2]; hippocampus dorsal) was -36 ± 8 % over basal, the “[35S]GTPγS binding, Stimulation (% over basal)” value (CB1 receptor [2]; hippocampus dorsal) was -38 ± 12 % over basal and the “[35S]GTPγS binding, Stimulation (% over basal), CP55,940 + UVI3502” value (CB1 receptor [2]; [3]) was -30 ± 37 % over basal. For the same compound, the “[35S]GTPγS binding, Stimulation (% over basal)” value (CB1 receptor [2]; [3]) was -20 ± 65 % over basal, the “[35S]GTPγS binding, Stimulation (% over basal), CP55,940 + UVI3502” value (CB1 receptor [2]; striatum) was -52 ± 13 % over basal and the “[35S]GTPγS binding, Stimulation (% over basal)” value (CB1 receptor [2]; striatum) was -52 ± 18 % over basal. The “[35S]GTPγS binding, Stimulation (% over basal), CP55,940 + UVI3502” value (CB1 receptor [2]; substantia nigra) was 181 ± 128 % over basal and the “[35S]GTPγS binding, Stimulation (% over basal)” value (CB1 receptor [2]; substantia nigra) was -58 ± 11 % over basal.
